# Test results published in patent US20070004680A1, “Compositions and methods for modulating gated ion channels” (PainCeptor Pharma Corporation, priority 2004, published 2007).
# Tests used:
# ASIC1a [1] = molecular target: T1, ASIC1a (Rattus norvegicus, UniProt P55926); experiment: whole cell patch clamp electrophysiology, ASIC1a; assay type: cell-based; settings: 1 μM compound; pH 6.5 and pH 5.0; compared with the corresponding 5-vinyl esters
# T1 construct: expressed in transfected cells; host or cells: HEK cells according to b213
# T1 sequence (P55926 1-526): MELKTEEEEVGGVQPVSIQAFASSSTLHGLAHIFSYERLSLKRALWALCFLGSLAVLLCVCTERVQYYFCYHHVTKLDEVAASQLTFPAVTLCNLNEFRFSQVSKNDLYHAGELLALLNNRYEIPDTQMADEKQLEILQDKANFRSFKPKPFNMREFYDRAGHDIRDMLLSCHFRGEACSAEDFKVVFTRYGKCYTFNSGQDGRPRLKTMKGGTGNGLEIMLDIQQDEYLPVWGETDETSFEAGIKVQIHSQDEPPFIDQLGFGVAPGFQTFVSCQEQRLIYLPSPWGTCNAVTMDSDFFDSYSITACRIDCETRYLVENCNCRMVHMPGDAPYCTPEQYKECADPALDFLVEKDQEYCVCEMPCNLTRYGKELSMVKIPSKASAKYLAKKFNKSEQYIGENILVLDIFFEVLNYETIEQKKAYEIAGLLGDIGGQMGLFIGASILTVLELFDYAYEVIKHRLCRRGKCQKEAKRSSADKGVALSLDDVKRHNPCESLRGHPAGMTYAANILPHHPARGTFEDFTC
# Procedure: (§1) Another example of an in vitro assessment method consists of using mammalian heterologous expression systems, which are known to the skilled in the art, and include a variety of mammalian cell lines such as COS, HEK, e.g., HEK293and/or CHO, cells. Cell lines are transfected with gated ion channel(s) and used to perform electrophysiology as follows:
# (§2) All experiments are performed at room temperature (20-25° C.) in voltage clamp using conventional whole cell patch clamp methods (Neher, E., et al. (1978) Pfluegers Arch 375:219-228).
# (§3) The amplifier used is the EPC-9 (HEKA-electronics, Lambrect, Germany) run by a Macintosh G3 computer via an ITC-16 interface. Experimental conditions are set with the Pulse-software accompanying the amplifier. Data is low pass filtered and sampled directly to hard-disk at a rate of 3 times the cut-off frequency.
# (§4) Pipettes are pulled from borosilicate glass using a horizontal electrode puller (Zeitz-lnstrumente, Augsburg, Germany). The pipette resistances are 2-3 MOhms in the salt solutions used in these experiments. The pipette electrode is a chloridized silver wire, and the reference is a silver chloride pellet electrode (In Vivo Metric, Healdsburg, USA) fixed to the experimental chamber. The electrodes are zeroed with the open pipette in the bath just prior to sealing.
# (§5) Coverslips with the cells are transferred to a 15 μl experimental chamber mounted on the stage of an inverted microscope (IMT-2, Olympus) supplied with Nomarski optics. Cells are continuously superfused with extracellular saline at a rate of 2.5 ml/min. After giga-seal formation, the whole cell configuration is attained by suction. The cells are held at a holding voltage of −60 mV and at the start of each experiment the current is continuously measured for 45 s to ensure a stable baseline. Solutions of low pH (<7) are delivered to the chamber through a custom-made gravity-driven flowpipe, the tip of which is placed approximately 50 μm from the cell. Application is triggered when the tubing connected to the flowpipe is compressed by a valve controlled by the Pulse-software. Initially, low pH (in general, pH 6.5) is applied for 1 s every 45 s. The sample interval during application is 550 μs. After stable responses are obtained, the extracellular saline as well as the low-pH solution are switched to solutions containing the compound to be tested. The compound is present until responses of a repeatable amplitude are achieved. Current amplitudes are measured at the peak of the responses, and effect of the compounds is calculated as the amplitude at compound equilibrium divided by the amplitude of the current evoked by the pulse just before the compound was included.
# The following salt solutions are used: extracellular solution (mM): NaCl (140), KCl (4), CaCl2 (2), MgCl2 (4), HEPES (10, pH 7.4); intracellular solution (mM): KCl (120), KOH (31), MgCl2 (1.785), […] (10), HEPES (10, pH 7.2). In general, compounds for testing are dissolved in 50% DMSO at 500 fold the highest concentration used.
# The cDNA for ASIC1a and ASIC3 can be cloned from rat poly(A)^+ mRNA and put into expression vectors according to Hesselager et al. (J Biol Chem. 279(12):11006-15 2004). All constructs are expressed in CHO-K1 cells (ATCC no. CCL61). CHO-K1 cells are cultured at 37° C. in a humidified atmosphere of 5% CO2 and 95% air and passaged twice every week. The cells are maintained in DMEM (10 mM HEPES, 2 mM glutamax) supplemented with 10% fetal bovine serum and 2 mM L-proline (Life Technologies). […]
# ASIC3 = molecular target: T2, ASIC3 (Rattus norvegicus, UniProt O35240); experiment: whole cell patch clamp electrophysiology, ASIC3; assay type: cell-based; settings: 1 μM compound; pH 6.5 and pH 5.0; compared with the corresponding 5-vinyl esters
# T2 construct: expressed in transfected cells
# T2 sequence (O35240 1-533): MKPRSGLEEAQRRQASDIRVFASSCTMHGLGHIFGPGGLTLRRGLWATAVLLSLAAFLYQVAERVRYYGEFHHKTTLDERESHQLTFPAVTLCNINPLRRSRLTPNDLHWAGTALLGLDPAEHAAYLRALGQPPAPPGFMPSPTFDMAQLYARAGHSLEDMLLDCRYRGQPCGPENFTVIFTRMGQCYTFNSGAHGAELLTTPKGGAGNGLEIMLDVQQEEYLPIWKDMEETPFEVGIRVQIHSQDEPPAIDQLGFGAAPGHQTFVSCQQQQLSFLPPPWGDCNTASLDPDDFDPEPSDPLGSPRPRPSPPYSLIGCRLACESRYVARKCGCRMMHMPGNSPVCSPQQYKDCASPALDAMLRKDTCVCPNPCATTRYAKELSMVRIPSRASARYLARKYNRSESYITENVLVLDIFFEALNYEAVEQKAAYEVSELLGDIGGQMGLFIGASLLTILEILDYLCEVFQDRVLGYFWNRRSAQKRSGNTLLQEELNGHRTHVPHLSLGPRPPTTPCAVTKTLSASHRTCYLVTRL
# Procedure: as §1, §2, §3, §4
# as §5, with “included. […]” for “included.”
# Male Sprague-Dawley rats = experiment: Formalin test (flinching behaviour); assay type: in vivo, rat; settings: 10 mg/kg i.v. 10 min prior to formalin in the hind limb; compared with vehicle; n=8
# Procedure: Male Sprague-Dawley rats (body weight, 180-300 g) are housed together in groups of four animals under standard conditions with unrestricted access to food and water. Rats are housed in the room in which the testing procedure is performed to minimize any stress response to novel environmental cues. All experiments are conducted according to the ethical guidelines for investigations of experimental pain in conscious animals (Zimmerman, 1983).
# Separate groups of rats are used for the different experiments such that each animal is used on one occasion only. All experiments for a given compound are performed using age matched animals in an attempt to avoid variability between experiments. Prior to initiation of the formalin test, 4 rats are habituated in separate testing cages for 15-20 min. […] On the basis of the response pattern, two distinct phases of nociceptive behavior are observed, characterized by flinching of the affected paw and scored (Blackburn-Munro et al., Eur J Pharmacol. 2002 Jun. 12;445(3):231-8). […]
# All data is analysed using Sigmastat 2.03 statistical software (Jandel Scientific GmbH, Germany) and expressed as mean±S.E.M. Two Way Repeated Measures Analysis of Variance (Two Way RM ANOVA) is used to analyse formalin test data and where applicable, this is followed by post-hoc analysis using Bonferroni's t-test to allow comparisons between groups. […]
# ASIC1a [2] = molecular target: T3, ASIC1a (Homo sapiens, UniProt P78348); experiment: FLIPR calcium assay (MES-induced calcium response), ASIC1a expressing HEK293 cells; assay type: cell-based; settings: HEK293; at 1 μM, HEK cells, FLIPR
# T3 construct: host or cells: HEK293
# T3 sequence (P78348 1-528): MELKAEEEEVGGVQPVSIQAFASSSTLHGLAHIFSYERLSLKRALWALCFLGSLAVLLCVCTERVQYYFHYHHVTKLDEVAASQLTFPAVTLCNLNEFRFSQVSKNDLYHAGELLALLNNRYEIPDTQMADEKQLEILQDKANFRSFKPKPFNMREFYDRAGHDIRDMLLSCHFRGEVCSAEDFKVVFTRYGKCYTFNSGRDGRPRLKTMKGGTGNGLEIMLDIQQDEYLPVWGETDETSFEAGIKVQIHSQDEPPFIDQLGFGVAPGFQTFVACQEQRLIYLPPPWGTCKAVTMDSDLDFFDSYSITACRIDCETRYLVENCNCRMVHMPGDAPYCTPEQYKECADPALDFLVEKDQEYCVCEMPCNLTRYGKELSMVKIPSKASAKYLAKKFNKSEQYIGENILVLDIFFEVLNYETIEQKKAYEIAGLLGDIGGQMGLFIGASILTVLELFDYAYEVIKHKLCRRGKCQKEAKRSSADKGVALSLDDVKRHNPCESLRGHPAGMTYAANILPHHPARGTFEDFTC
# Procedure: ASIC1a expressing HEK293 cells are grown in culture medium (DMEM with 10% FBS), in polystyrene culture flasks ([…]) at 37° C. in a humidified atmosphere of 5% CO2. Confluency of cells should be 80-90% on day of plating. Cells are rinsed with 10 ml of PBS and cells are re-suspended by addition of culture medium and trituration with a 25 ml pipette.
# The cells are seeded at a density of approximately 1×10^6 cells/ml (100 μl/well) in black-walled, clear bottom, 96-well plates pre-treated with 10 mg/l poly-D-lysin (75 μl/well for ≧30 min). Plated cells were allowed to proliferate for 24 h before loading with dye.
# Fluo-4/AM (1 mg, Molecular Probes) is added 912 μl DMSO. The Fluo-4/AM stock solution (1 mM) is diluted with culture medium to a final concentration of 2 μM.
# The culture medium is aspirated from the wells, and 50 μl of the Fluo-4/AM loading solution is added to each well. The cells are incubated at 37° C. for 30 min.
# After the loading period, the loading solution is aspirated and the cells are washed twice with 100 μl modified FLIPR medium (145 mM NaCl, 5 mM KCl, 5 mM CaCl2, 1 mM MgCl2, 10 mM HEPES, pH 7.4) to remove extracellular dye. Following the second wash, 100 μl modified FLIPR medium is added to each well and the fluorescence is measured in FLIPR.
# Temperature: Room temperature (20-22° C.)
# First addition: 50 μl test solution at a rate of 30 μl/sec and a starting height of […]
# Second addition: 50 μl MES solution (20 mM, 5 mM final concentration) at a rate of 35 μl/sec and a starting height of 150 μl.
# Reading intervals: pre-incubation—10 sec×7 and 3 sec×3 antagonist phase—3 sec×17 and 10 sec×12
# Addition plates (compound test plate and MES plate) are placed on the right and left positions in the FLIPR tray, respectively. Cell plates are placed in the middle position and the ASIC1a program is effectuated. FLIPR will then take the appropriate measurements in accordance with the interval settings above. Fluorescence obtained after stimulation is corrected for the mean basal fluorescence (in modified FLIPR medium). […]
Compound,difference in current between control ASICs and ASICs with compound (ASIC1a) (ASIC1a [1]),difference in current between control ASICs and ASICs with compound (ASIC3) (ASIC3),flinching behaviour in Formalin test (Male Sprague-Dawley rats),inhibition at 1 µM (ASIC1a [2]) [%]
"CCC1CN2CCC1CC2C(OC(=O)CC(C)(C)C)c1ccnc2ccc(OC)cc12 (stereo not drawn) [3,3-dimethyl-butyric acid (5-ethyl-1-aza-bicyclo[2.2.2]oct-2-yl)-(6-methoxy-quinolin-4-yl)-methyl ester]",larger difference in current,larger difference in current,–,–
C=CC1CN2CCC1CC2[C@H](OC(=O)CCC1CCCC1)c1ccnc2ccccc12 (stereo partly drawn) [B],–,–,attenuated flinching behaviour,–
C=CC1CN2CCC1CC2[C@H](OC(=O)CCC1CCCC1)c1ccnc2ccccc12 (stereo partly drawn) [drawing 27],–,–,–,30 to 45
CCCCC(=O)OC(c1ccnc2ccc(OC)cc12)C1CC2CCN1CC2CC (stereo not drawn) [pentanoic acid (5-ethyl-1-aza-bicyclo[2.2.2]oct-2-yl)-(6-methoxy-quinolin-4-yl)-methyl ester],larger difference in current,larger difference in current,–,–
